Key:
[1] = molecular target: T1, Human recombinant MMP-1 (Homo sapiens, UniProt P03956); assay: In vitro MMP inhibition analysis (fluorogenic peptide substrate cleavage), Ki; format: biochemical; settings: Table 2
T1 construct: made in house; host or cells: MMP-1-transfected HT-1080 cells (spent media)
T1 sequence (P03956 100-469): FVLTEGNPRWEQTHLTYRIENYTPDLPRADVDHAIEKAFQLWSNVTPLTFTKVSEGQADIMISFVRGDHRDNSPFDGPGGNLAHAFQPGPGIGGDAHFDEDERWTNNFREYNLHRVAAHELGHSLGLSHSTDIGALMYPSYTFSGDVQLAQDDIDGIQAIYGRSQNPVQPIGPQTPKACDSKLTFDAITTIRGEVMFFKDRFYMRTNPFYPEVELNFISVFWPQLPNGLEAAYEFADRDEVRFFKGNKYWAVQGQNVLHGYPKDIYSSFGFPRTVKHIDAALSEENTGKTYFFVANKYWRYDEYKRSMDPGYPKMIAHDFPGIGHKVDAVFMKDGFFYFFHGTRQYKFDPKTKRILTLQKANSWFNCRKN
In short: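 APMA- or trypsin-activated recombinant human MMP-1 (purified from transfected HT-1080 medium) with 4 μM MCA/Dpa quenched fluorogenic peptide, 1 h at room temperature in Tris/NaCl/CaCl2 buffer pH 7.5; fluorescence ex 330/em 420 nm. Ki from Morrison-equation fit of rates, substrate at or below Km, uncorrected.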

[2] = molecular target: T2, Human recombinant MMP-13 (Homo sapiens, UniProt P45452); assay: as above; format: biochemical; settings: Table 2
T2 construct: made in house; host or cells: baculovirus / insect cells
Protocol: Several compounds and salts were analyzed in an in vitro assay to determine their ability to inhibit the MMP cleavage of peptide substrates. Inhibition constant (Ki) were calculated from the assayed compound-MMP interactions.
Human recombinant MMP-1, MMP-2, MMP-9, MMP-13, and MMP-14 were used in this assay. All enzymes were prepared in Assignee's laboratories following usual laboratory procedures. Protocols for the preparation and use of these enzymes are available in the scientific literature. See, e.g., Enzyme Nomenclature (Academic Press, San Diego, Calif., 1992) (and the citations therein). See also, Frije et al., J. Biol. Chem., 26(24), 16766-73 (1994).
The MMP-13 was obtained as a proenzyme from a full-length cDNA clone using baculovirus, as described by V. A. Luckow, “Insect Cell Expression Technology,” Protein Engineering: Principles and Practice, pp. 183-218 (edited by J. L. Cleland et al., Wiley-Liss, Inc., 1996). The expressed proenzyme was first purified over a heparin agarose column, and then over a chelating zinc chloride column. The proenzyme was then activated by APMA for use in the assay. Further details on baculovirus expression systems may be found in, for example, Luckow et al., J. Virol., 67, 4566-79 (1993). See also, O'Reilly et al, Baculovirus Expression Vectors: A Laboratory Manual (W.H. Freeman and Co., New York, N.Y., 1992). See also, King et al., The Baculovirus Expression System: A Laboratory Guide (Chapman & Hall, London, England, 1992).
All MMPs were activated using 4-aminophenylmercuric acetate (“APMA”, Sigma Chemical, St. Louis, Mo.) or trypsin. MMP-9 also was activated using human recombinant MMP-3 (purified in Assignee's laboratory following standard cloning and purification techniques).
The following fluorogenic, methoxycoumarin-containing polypeptide substrate (I) was used in the MMP inhibition assays: MCA-ArgProLeuGlyLeuDpaAlaArgGluArgNH2 (I) “MCA” is 7-methoxycoumarin-4-yl acetyl. Substrate (I) was prepared Assignee's laboratory. In the absence of MMP inhibitory activity, the substrate is cleaved at the Gly-Leu peptide bond. This cleavage separates the highly fluorogenic peptide from the 2,4-dinitrophenyl quencher, thus resulting in increase of fluorescent intensity.
The stock solutions of the assayed compounds and salts were prepared in […] (DMSO). These stock solutions were diluted in Buffer A (100 mM Tris-HCl, 100 mM NaCl, 10 mM CaCl2, 0.05% polyoxyethylene 23 lauryl ether, pH 7.5) to obtain solutions with different compound concentrations, i.e., assay solutions with different concentrations of the assayed […] compound. The experiment controls contained the same amount of Buffer A/DMSO as the assayed sample, but contained none of the tested compound or salt.
The assays from which the Ki determinations were made were performed as follows. The assayed compound samples were incubated in separate wells of untreated white polystyrene plates (Nunc Nalgene International, Rochester, N.Y.), and analyzed on a Tecan SpectraFlour Plus plate reader. The excitation wavelength was 330 nm, and the emission wavelength—420 nm. All samples (assayed compounds and controls) were incubated in separate plate wells at room temperature for 1 hr in the presence of 4 μM of MMP substrate (I). In the absence of MMP inhibitory activity, substrate (I) was cleaved at the Gly-Leu bond resulting in an increase of relative fluorescence. Inhibition was observed as a reduced rate of this increase in relative fluorescence. […] This protocol is a modification of method by Knight et al., FEBS Lett., 296(3), 263-266 (1992). Apparent inhibitory constants were determined by non-linear regression of reaction velocity as a function of inhibitor and enzyme concentration using Morrison's equation, as described by Kuzmic, Anal. Biochem. 286, 45-50 (2000). […]

Ki [1] [nM]	Ki [2] [nM]	Compound
969	0.03	COCCOc1ccc(-c2ccc(S(=O)(=O)C3(C(=O)NO)CCOCC3)cc2)cc1 [Example 70]
1290	0.0485	CCCCOc1ccc(-c2ccc(S(=O)(=O)C3(C(=O)NO)CCOCC3)cc2)cc1 [Example 77]
> 10000	16.6	CCCCOc1ccc(-c2ccc(S(=O)(=O)C3(C(=O)NO)CCOCC3)cc2)cc1C(F)(F)F [Example 78]
471	0.091	CCc1ccc(-c2ccc(S(=O)(=O)C3(C(=O)NO)CCOCC3)cc2)cc1 [Example 79]
577	0.068	O=C(NO)C1(S(=O)(=O)c2ccc(-c3ccc(OC(F)(F)F)cc3)cc2)CCOCC1 [Example 80]
354	0.118	Cc1ccc(-c2ccc(S(=O)(=O)C3(C(=O)NO)CCOCC3)cc2)nc1 [Example 81]
256	0.13	O=C(NO)C1(S(=O)(=O)c2ccc(-c3ccc(C(F)(F)F)cn3)cc2)CCOCC1 [Example 82]
> 10000	1.31	CCCCNc1cnc(-c2ccc(S(=O)(=O)C3(C(=O)NO)CCOCC3)cc2)cn1 [Example 83]
> 10000	1.85	O=C(NO)C1(S(=O)(=O)c2ccc(-c3ccc(F)c(C(F)(F)F)c3)cc2)CCOCC1 [Example 84]
> 10000	14.7	O=C(NO)C1(S(=O)(=O)c2ccc(-c3ccc(OCC(F)(F)C(F)F)c(C(F)(F)F)c3)cc2)CCOCC1 [Example 85]
> 10000	36.2	CC(C)CCOc1ccc(-c2ccc(S(=O)(=O)C3(C(=O)NO)CCOCC3)cc2)cc1C(F)(F)F [Example 86]
1110	0.138	CCCc1ccc(-c2ccc(S(=O)(=O)C3(C(=O)NO)CCOCC3)cc2)cc1 [Example 87]
3520	0.0368	O=C(NO)C1(S(=O)(=O)c2ccc(-c3cnc(OCCCC(F)(F)F)cn3)cc2)CCOCC1 [Example 88]
2260	0.0332	CCCCc1ccc(-c2ccc(S(=O)(=O)C3(C(=O)NO)CCOCC3)cc2)nc1 [Example 89]
> 10000	19.7	O=C(NO)C1(S(=O)(=O)c2ccc(-c3ccc(OCC(F)(F)C(F)(F)F)c(C(F)(F)F)c3)cc2)CCOCC1 [Example 90]
3900	0.217	CCCCc1ccc(-c2ccc(S(=O)(=O)C3(C(=O)NO)CCOCC3)cc2)cc1 [Example 91]
> 10000	29.7	CCC(C)COc1ccc(-c2ccc(S(=O)(=O)C3(C(=O)NO)CCOCC3)cc2)cc1C(F)(F)F (stereo not drawn) [Example 92]
> 10000	4.45	CCNc1cnc(-c2ccc(S(=O)(=O)C3(C(=O)NO)CCOCC3)cc2)cn1 [Example 93]
> 10000	0.428	O=C(NO)C1(S(=O)(=O)c2ccc(-c3cnc(-n4cccc4)cn3)cc2)CCOCC1 [Example 94]
1020	0.155	O=C(NO)C1(S(=O)(=O)c2ccc(-c3ccc(OCC(F)(F)C(F)(F)F)cc3)cc2)CCOCC1 [Example 95]
602	0.416	O=C(NO)C1(S(=O)(=O)c2ccc(-c3ccc(C(F)(F)F)cc3F)cc2)CCOCC1 [Example 96]

Ki [1] [nM]	Ki [2] [nM]	Compound
1040	0.521	CC(C)c1ccc(-c2ccc(S(=O)(=O)C3(C(=O)NO)CCOCC3)cc2)cc1 [Example 97]
8950	0.84	COC/C(Cl)=C/c1cnc(-c2ccc(S(=O)(=O)C3(C(=O)NO)CCOCC3)cc2)cn1 [Example 165]
1660	0.03	CC(C)CC#Cc1cnc(-c2ccc(S(=O)(=O)C3(C(=O)NO)CCOCC3)cc2)cn1 [Example 166]
> 10000	0.74	O=C(NO)C1(S(=O)(=O)c2ccc(-c3ccc(CCC(F)(F)C(F)(F)F)cc3)cc2)CCS(=O)(=O)CC1 [Example 167]
1920	0.06	O=C(NO)C1(S(=O)(=O)c2ccc(-c3cnc(OCC4CC4)cn3)cc2)CCOCC1 [Example 168]
> 10000	0.24	CC(C)CCc1cnc(-c2ccc(S(=O)(=O)C3(C(=O)NO)CCOCC3)cc2)cn1 [Example 169]
693	0.08	CC(C)COc1cnc(-c2ccc(S(=O)(=O)C3(C(=O)NO)CCOCC3)cc2)cn1 [Example 170]
6370	0.23	O=C(N1CCOCC1)N1CCC(C(=O)NO)(S(=O)(=O)c2ccc(-c3ccc(CCC(F)(F)C(F)(F)F)cc3)cc2)CC1 [Example 171]
1360	0.03	O=C(NO)C1(S(=O)(=O)c2ccc(-c3cnc(OCCC4CC4)cn3)cc2)CCOCC1 [Example 172]
4610	0.32	CN(C)C(=O)N1CCC(C(=O)NO)(S(=O)(=O)c2ccc(-c3ccc(CCC(F)(F)C(F)(F)F)cc3)cc2)CC1 [Example 173]
> 10000	1.92	CC(C)N(C(=O)N1CCC(C(=O)NO)(S(=O)(=O)c2ccc(-c3ccc(CCC(F)(F)C(F)(F)F)cc3)cc2)CC1)C(C)C [Example 174]
> 10000	0.71	O=C(N1CCCCC1)N1CCC(C(=O)NO)(S(=O)(=O)c2ccc(-c3ccc(CCC(F)(F)C(F)(F)F)cc3)cc2)CC1 [Example 175]
1200	0.02	O=C(NO)C1(S(=O)(=O)c2ccc(-c3ccc(CCC(F)(F)F)cn3)cc2)CCOCC1 [Example 176]
> 10000	0.82	COCCC(C(=O)NO)S(=O)(=O)c1ccc(-c2ccc(CCC(F)(F)C(F)(F)F)cc2)cc1 (stereo not drawn) [Example 177]
1100	0.08	O=C(NO)C1(S(=O)(=O)c2ccc(-c3cnc(OCC4CCC4)cn3)cc2)CCOCC1 [Example 178]
> 10000	0.973	COc1ccc(C(=O)c2cnc(-c3ccc(S(=O)(=O)C4(C(=O)NO)CCOCC4)cc3)cn2)cc1 [Example 179]
> 10000	0.15	O=C(NO)C1(S(=O)(=O)c2ccc(-c3cnc(OCCC4CCCC4)cn3)cc2)CCOCC1 [Example 180]
465	0.09	COC(=O)c1ccc2cc(-c3ccc(S(=O)(=O)C4(C(=O)NO)CCOCC4)cc3)ccc2c1 [Example 181]
> 10000	7.07	COc1ccc(Cc2cnc(-c3ccc(S(=O)(=O)C4(C(=O)NO)CCOCC4)cc3)cn2)cc1 [Example 182]
> 10000	0.13	CO[C@H]1CC[C@](C(=O)NO)(S(=O)(=O)c2ccc(-c3cnc(CCC(F)(F)C(F)(F)F)cn3)cc2)CC1 [Example 183]
533	0.21	CCCCNC(=O)c1cnc(-c2ccc(S(=O)(=O)C3(C(=O)NO)CCOCC3)cc2)cn1 [Example 184]

Reference: patent publication US20060074243A1, “Hydroxamic acid and amide compounds and their use as protease inhibitors” (Pharmacia Corporation, priority 2002, published 2006)
